Measured values from patent US10870872B2, “Enzymatic nucleic acid synthesis” (President and Fellows of Harvard College, priority 2016, dated 2020).

Tests used:
TdT [1] = target: T1, TdT (Homo sapiens, UniProt P04053); experiment: Screen of nucleotide analogue substrates for TdT-based DNA synthesis (NPU formulation with Apyrase); assay type: biochemical; settings: for behavior with respect to TdT-based DNA synthesis (extension efficiency, rate, extension length distribution): natural nucleotides; for efficiency as substrate of TdT versus natural counterpart: analogues more positively charged than natural counterparts
T1 sequence (P04053 whole entry, species assumed): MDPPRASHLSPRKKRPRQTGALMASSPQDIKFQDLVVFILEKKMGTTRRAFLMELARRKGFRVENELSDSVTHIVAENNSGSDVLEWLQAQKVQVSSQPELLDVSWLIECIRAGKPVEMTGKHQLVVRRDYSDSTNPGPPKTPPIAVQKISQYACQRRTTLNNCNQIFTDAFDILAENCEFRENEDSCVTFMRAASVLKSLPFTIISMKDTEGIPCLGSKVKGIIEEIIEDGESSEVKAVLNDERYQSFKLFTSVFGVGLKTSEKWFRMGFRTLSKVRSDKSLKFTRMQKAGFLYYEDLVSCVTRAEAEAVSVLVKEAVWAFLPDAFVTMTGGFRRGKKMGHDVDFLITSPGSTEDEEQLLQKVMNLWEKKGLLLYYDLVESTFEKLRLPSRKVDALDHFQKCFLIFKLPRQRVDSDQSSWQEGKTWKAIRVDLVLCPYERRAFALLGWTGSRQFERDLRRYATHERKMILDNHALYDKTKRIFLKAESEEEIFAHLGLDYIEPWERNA
Excerpt: In the general scheme of the presently disclosed methods, the distribution of extension length by TdT is important to ensure efficient and reliable encoding of information into DNA. […] The following nucleotide analogues with the NPU formulation which included Apyrase were explored.

TdT [2] = target: T1, TdT; experiment: Chemical control of TdT extension by Apyrase on immobilized initiator oligo (PCR, agarose gel); assay type: biochemical; settings: 0.001 U/μL Apyrase, 1 U/μL TdT, 4 minutes at room temperature
Procedure: According to an exemplary protocol of the present disclosure, an initiator oligonucleotide was first immobilized onto a surface, for example with the use of a 5 prime modified oligonucleotide onto aldehyde functionalized glass slides. After tethering the initiator to a solid support, the surface was treated to neutralize the chemical reactive groups such as aldehydes in this case, and to increase hydrophobicity.
Dilutions of nucleotides in solvents such as water or ethanol of the following concentration and types were prepared:
Each of these nucleotides were printed on an oligo spot with a liquid handling robot followed by printing of the enzymatic mix comprising TdT (Terminal deoxynucleotidyl transferase) and Apyrase. […]
Each of the synthesized DNA strands were released off the solid-support surface, in this exemplary embodiment, enzymatically, by the use of USER (Uracil-Specific Excision Reagent) enzyme which cleaves the uracils that are near the 5 prime distal end of the initial initiator oligonucleotide. These strands were subsequently PCR amplified and the number of synthesized nucleotides were evaluated by two methods: electrophoresis on agarose or PAGE gels for cursory bulk analysis and sequenced with next-generation sequencing platforms such as Illumina, Pacific Bioscience, and/or Oxford Nanopore for quantitative single-molecule analysis. […]

Compound	behavior with respect to TdT-based DNA synthesis (extension efficiency, rate, extension length distribution) (TdT [1])	efficiency as substrate of TdT versus natural counterpart (TdT [1])	further results
Cc1cn([C@H]2C[C@H](O)[C@@H](COP(=O)(O)OP(=O)(O)OP(=O)(O)O)O2)c(=O)[nH]c1=O [dTTP]	poorest behavior	–	–
Nc1ncnc2c1ncn2[C@H]1C[C@H](O)[C@@H](COP(=O)(O)OP(=O)(O)OP(=O)(O)O)O1 [dATP]	poorest behavior	–	–
Apyrase	–	–	effect on average amount of extension by TdT (TdT [2]): effectively limited the average amount of extension by TdT

The next lines start with results.

behavior with respect to TdT-based DNA synthesis (extension efficiency, rate, extension length distribution) (TdT [1])	efficiency as substrate of TdT versus natural counterpart (TdT [1])	Compound	further results
–	far more efficient substrates of TdT	NC/C=C/c1cn(C2CC(O)C(COP(=O)(O)OP(=O)(O)OP(=O)(O)O)O2)c(=O)[nH]c1=O (stereo not drawn) [5-Aminoallyl-dUTP]	–
–	far more efficient substrates of TdT	NCC#Cc1cn(C2CC(O)C(COP(=O)(O)OP(=O)(O)OP(=O)(O)O)O2)c(=O)[nH]c1=O (stereo not drawn) [5-Propargylamino-dUTP]	–
most optimal behavior	–	Nc1ccn([C@H]2C[C@H](O)[C@@H](COP(=O)(O)OP(=O)(O)OP(=O)(O)O)O2)c(=O)n1 [dCTP]	–
